Data as given in patent publication US20090041719A1, “Method for screening therapeutic agent for glomerular disorder” (priority 2006, published 2009).
Several values for one entry are separate records, joined by “and”; a condition that tells them apart may be missing. Equal values may be shown once.

Test system: rat unilateral ureteral obstruction release model
Test: Rat unilateral ureteral obstruction release model: glomerular and tubulointerstitial lesions, Asc-1+ cells;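 for Tubulointerstitial lesion: atrophy of tubules associated with dilatation of tubules (score): ± very light + light ++ moderate +++ high change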;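 for Tubulointerstitial lesion: fibrosis of interstitial tissue (score): ± very light + light ++ moderate +++ high change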;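 for Tubulointerstitial lesion: thickness of basement membrane (score): ± very light + light ++ moderate +++ high change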
Type: in vivo, SD rat
Text: An experimental model was produced in accordance with the method devised and established by Ishibashi (Michio Ishibasi et al., Japanese Journal of Nephrology 42: 248, 2000), using a 8 to 9-week-old male SD rat weighing about 280 g. […] On day 14 after obstruction, the obstruction was released, and the urinary tract was reconstructed using a cuff. That is, 14 days later, the ligated ureteral obstruction part was partially removed, and a 25 gauge polyethylene tube (made by Nippon Sherwood) as a cuff was inserted from the lower normal ureteral stump and placed in the lumen. Next, the cuff was placed also in the expanded upper ureter, and both parts were ligated for fixation with a 7-0 nylon suture to reconstruct the urinary tract. At the same time, the right kidney was removed. The weight was measured after obstruction release, and the blood was collected on days 2, 5, and 7 after release for serum creatinine determination. On day 7, the rat was sacrificed under anesthesia and the left obstruction release kidney was removed. The weight of the removed kidney was measured, and the kidney pathomorphological examination was performed.
The biological effects of the test compound were studied in vivo using the model obtained in the above procedure 1). The test compound in the form of bulk powder was dissolved in sterilized physiologic saline together with gum arabic, where the concentration of the gum arabic was adjusted to 5% and the concentration of the test compound was adjusted to 30 mg/ml. The amount of 30 mg/kg was subcutaneously administered every day. Daily administration was continued for 21 days during 14 days of obstruction and 7 days after obstruction release. For controlled comparison, the solvent of 5% gum arabic was administered alone.
On day 22 from the administration of the test compound, the rat was sacrificed under anesthesia, and the left obstruction release kidney was removed and neutral formalin fixed. The fixed renal tissue embedded in paraffin was sliced into 4-micrometer-thick pieces for examination.
The tissue section was observed under a microscope in order to count the number of glomeruli and the number of glomeruli having a lesion (expansion of a tubular pole associated with swollen Bowman's capsule epithelial cells or hypertrophy of a Bowman's capsule basal membrane) in the field of view, and the number of glomeruli having the lesion (referred to as “lesioned glomerulus”) per 50 glomeruli was calculated.
As for the effectiveness to improve of glomerular lesions, when the number of lesioned glomeruli per 50 glomeruli was reduced to less than or equal to half the average number of those of the control group, it was determined as improved.
An affinity-purified anti-rat Asc-1 polyclonal antibody (rabbit) was prepared as follows: that is, in order to prepare an anti-Asc-1 peptide polyclonal antibody (rabbit), an oligopeptide (PSPLPITDKPLKTQC (SEQ. ID NO: 4)) corresponding to amino acid residues of 517-530 of Asc-1 was synthesized (see J Biol Chem (2000); 275: 9690-9698), keyhole limpet hemocyanine was bound to the C-terminal cysteine as an adjuvant, and […] was immunized therewith. The serum was collected on days 7 and 14 from the immunization. The serum was concentrated by means of an adsorption-dissociation operation using an affinity column to which an oligopeptide corresponding to amino acid residues of 517-530 of Asc-1 was bound in order to obtain an affinity-purified antibody having a protein content of 0.5 mg/ml. As for immunopathological examination, paraffin rat […] diluted with PBS to the optimal concentration was used.
The immune tissue staining was performed based on the protocol of Ventana HX system bench mark (Ventana Japan K.K., Tokyo) including the automated immunostaining device manufactured by Ventana Japan K.K. After deparaffinization, the tissue section was heat-treated at 100° C. for 1 hour. […]

[1] = group average ± standard deviation
[2] = individual animal, 30 mg/kg s.c. daily for 21 days, 30 mg/kg
[3] = individual animal, points: ± 0.5, + 1, ++ 2, +++ 3

SMILES: O=C1CCC(F)(C(=O)OCc2ccccc2)O1 (stereo not shown) [Compound (6-2)]
- Glomerular lesion: number of lesioned glomeruli per 50 glomeruli, expansion of tubular pole associated with swollen Bowman's capsule epithelial cells [1]: 3 ± 2 per 50 glomeruli
- Glomerular lesion: number of lesioned glomeruli per 50 glomeruli, hypertrophy of Bowman's capsule basal membrane [1]: 7 ± 2 per 50 glomeruli
- Number of Asc-1+ cells per 50 glomeruli [1]: 8.01 ± 1.96 per 50 glomeruli
- Tubulointerstitial lesion: atrophy of tubules associated with dilatation of tubules (score) [1]: 0.90 ± 0.3
- Tubulointerstitial lesion: fibrosis of interstitial tissue (score) [1]: 1.5 ± 0.6
- Tubulointerstitial lesion: thickness of basement membrane (score) [1]: 1.5 ± 0.6
- Tubulointerstitial lesion: total score [1]: 3.9 ± 1.0
- Glomerular lesion: number of lesioned glomeruli per 50 glomeruli, expansion of tubular pole associated with swollen Bowman's capsule epithelial cells [2]: 2 per 50 glomeruli (2×) and 5 per 50 glomeruli and 1 per 50 glomeruli
- Glomerular lesion: number of lesioned glomeruli per 50 glomeruli, hypertrophy of Bowman's capsule basal membrane [2]: 6 per 50 glomeruli and 9 per 50 glomeruli and 5 per 50 glomeruli and 8 per 50 glomeruli
- Number of Asc-1+ cells per 50 glomeruli [2]: 9.40 per 50 glomeruli and 9.05 per 50 glomeruli and 5.12 per 50 glomeruli and 8.47 per 50 glomeruli
- Improvement of glomerular lesion (individual animal, Yes = lesioned glomeruli per 50 glomeruli reduced to less than or equal to half the control average): Yes (3×) and No
- Improvement of tubulointerstitial lesion (individual animal, Yes = reduced to less than or equal to half the control average): No
- Tubulointerstitial lesion: atrophy of tubules associated with dilatation of tubules (score) [3]: 1 (3×) and 0.5
- Tubulointerstitial lesion: fibrosis of interstitial tissue (score) [3]: 1 (2×) and 2 (2×)
- Tubulointerstitial lesion: thickness of basement membrane (score) [3]: 1 (2×) and 2 (2×)
- Tubulointerstitial lesion: total score (individual animal, sum of the three scores): 3 (2×) and 4.5 and 5
- glomerular lesion (in words) (summary of Table 5): selectively reduced
- uriniferous tubule lesion (in words) (summary of Table 5): not reduced
- Asc-1 positive cells in the glomeruli (in words) (versus control group): increased more significantly than in the control group
